Laboratory results reported in patent US20230133761A1, “INHIBITION OF FKBP1A FOR THE TREATMENT OF TRIPLE-NEGATIVE MAMMARY CARCINOMA” (Heinrich-Heine-Universität Düsseldorf, priority 2020, published 2023).
Blank lines part the entries; values can stand above or below the compound they belong to.

Tests used:
[1] = test system: triple-negative mammary carcinoma; assay: Combined inhibition of FKBP1A and PIN1 in triple-negative mammary carcinoma (tumor stem cell character, apoptosis induction); assay type: cell-based; details: FKBP1A-specific siRNA and co-incubation with ATRA
[2] = target: T1, FKBP1A (Homo sapiens, UniProt P62942); assay: Anti-tumor effect on tumor stem cell and EMT markers by PROTAC-mediated FKBP1A expression reduction; assay type: cell-based
T1 construct: The cells were then washed with PBS, lysed and the expression of FKBP1A was analyzed by western blotting; endogenous in cells; host or cells: MDA-MB-231

[3] = test system: breast tumor xenograft; details: in vivo; cited from earlier work
[4] = test system: endothelial and breast cancer cells; details: cited from earlier work
[5] = test system: SFRP2 and VEGF-stimulated in vitro tube formation; details: cited from earlier work

T1 sequence (P62942 whole entry): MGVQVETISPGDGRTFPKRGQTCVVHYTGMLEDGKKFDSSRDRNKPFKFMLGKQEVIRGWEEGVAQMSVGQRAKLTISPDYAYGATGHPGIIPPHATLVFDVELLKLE

SMILES: CC1=C(/C=C/C(C)=C/C=C/C(C)=C/C(=O)O)C(C)(C)CCC1 [ATRA, all-trans retinoic acid]
- Effect on reduction of tumor stem cell character and ability to induce apoptosis [1]: strong synergistic effect

- Anti-tumor effect on tumor stem cell and EMT markers compared to pure inhibition of the enzyme function of FKBP1A [2]: stronger anti-tumor effect
SMILES: CO[C@H]1C[C@@H]2CC[C@@H](C)[C@@](O)(O2)C(=O)C(=O)N2CCCC[C@H]2C(=O)O[C@H]([C@H](C)C[C@@H]2CC[C@@H](OCCOCc3cn(CCOCCOCCNc4cccc5c4C(=O)N(C4CCC(=O)NC4=O)C5=O)nn3)[C@H](OC)C2)CC(=O)[C@H](C)/C=C(\C)[C@@H](O)[C@@H](OC)C(=O)[C@H](C)C[C@H](C)/C=C/C=C/C=C/1C (some centres unmarked) [FKBP12 PROTAC RC32]

SMILES: C=CC[C@@H]1/C=C(\C)C[C@H](C)C[C@H](OC)[C@H]2O[C@@](O)(C(=O)C(=O)N3CCCC[C@H]3C(=O)O[C@H](/C(C)=C/[C@@H]3CC[C@@H](O)[C@H](OC)C3)[C@H](C)[C@@H](O)CC1=O)[C@H](C)C[C@@H]2OC [tacrolimus]
- Breast tumor xenograft growth [3]: attenuates breast tumor xenograft growth in vivo
- Migration of endothelial and breast cancer cells [4]: inhibit the migration of endothelial and breast cancer cells
- SFRP2 and VEGF-stimulated in vitro tube formation [5]: inhibit SFRP2 and VEGF-stimulated in vitro tube formation
